Data from PubChem BioAssay (NCI).
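Method: 48-hour compound exposure of cells in 96-well plates, five concentrations, linear interpolation of endpoints. GI50 = concentration required for 50% inhibition of growth. TGI: total growth inhibition.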

What was measured:
Assay in all cases: inhibition of tumour cell growth, NCI panel, 48 h
786-0 renal = test system: 786-0 renal
CCRF-CEM leukemia = test system: CCRF-CEM leukemia
HOP-62 NSCLC = test system: HOP-62 NSCLC
MDA-MB-231 breast = test system: MDA-MB-231 breast
NCI-H226 lung = test system: NCI-H226 lung
SF-295 CNS = test system: SF-295 CNS
SF-539 CNS = test system: SF-539 CNS
SK-OV-3 ovarian = test system: SK-OV-3 ovarian
SNB-19 CNS = test system: SNB-19 CNS
SNB-75 CNS = test system: SNB-75 CNS

SMILES | GI50 (786-0 renal) [µM] | TGI (786-0 renal) [µM] | GI50 (CCRF-CEM leukemia) [µM] | TGI (CCRF-CEM leukemia) [µM] | GI50 (HOP-62 NSCLC) [µM] | TGI (HOP-62 NSCLC) [µM] | GI50 (MDA-MB-231 breast) [µM] | TGI (MDA-MB-231 breast) [µM] | GI50 (NCI-H226 lung) [µM] | TGI (NCI-H226 lung) [µM] | GI50 (SF-295 CNS) [µM] | TGI (SF-295 CNS) [µM] | GI50 (SF-539 CNS) [µM] | TGI (SF-539 CNS) [µM] | GI50 (SK-OV-3 ovarian) [µM] | TGI (SK-OV-3 ovarian) [µM] | GI50 (SNB-19 CNS) [µM] | TGI (SNB-19 CNS) [µM] | GI50 (SNB-75 CNS) [µM] | TGI (SNB-75 CNS) [µM]
Nc1nccc(-c2c(-c3ccc(F)cc3)nn3cc(C(F)(F)F)ccc23)n1 | > 25 | > 25 | > 25 | > 25 | > 21.9 | > 25 | > 25 | > 25 | > 25 | > 25 | > 25 | > 25 | > 25 | > 25 | > 25 | > 25 | > 25 | > 25 | > 19.7 | > 25
CCSCC1CC(O)(c2ccccc2)C(c2ccccc2)C(c2ccc(F)cc2)O1 (configuration not stated) | 2.19 | 5.08 | 3.15 | 32.1 | 2.08 | 4.52 | 2.58 | 8.3 | 1.97 | 4.89 |  |  | 1.6 | 3.07 | 2.7 | 9.15 | 2.05 | 7.6 | 1.52 | 3.67
CN1CCN(c2c(F)cc(NC3=C(Cl)C(=O)c4ncccc4C3=O)cc2F)CC1 | 1.84 | 3.44 | 2.24 | 22 | 19.2 | 42.9 | 3.47 | 12.3 | 22.2 | 55.9 | 17.2 | 33.5 | 15.7 | 29.1 | 25.2 | 72 | 17.1 | 31.1 | 10.9 | 23.9
CC(C)[C@@H]1CC[C@]2(CO2)[C@@H]2C(=O)OCC(C(=O)O)=C[C@H]21 | 0.358 | > 100 | 0.319 | 2.85 | 0.35 | 6.94 | 0.363 | > 75.6 | 0.667 | > 100 | 1 | > 100 | 0.353 | > 34.6 | 0.438 | > 100 | 0.379 | > 27.1 | 0.422 | > 100
ClCCOCCn1cnc2c(Cl)nc(Cl)nc21 | 19.4 | 44 | 11.7 | > 100 | 15.7 | 30.5 | 14.4 | 28.3 | 16.3 | 33.8 | 14 | 29.3 | 12.1 | 25.8 | 16.2 | 29.8 | 16.4 | 30.5 | 13.8 | 29.2
COc1ccc(C(O)c2cc3c(N)c(C(=O)Nc4cccc5ccccc45)sc3nc2C)cc1 (configuration not stated) | 0.499 |  | 0.378 | > 100 | 1.27 | > 100 | 0.393 |  | 0.416 | > 88 | 3.4 | > 100 | 0.025 | 0.0698 | 0.643 | > 100 | 0.469 | > 100 | 0.39 | > 100
C#Cc1ccc(-n2c(/C=C/c3ccc(O)cc3)nc3ncccc3c2=O)cc1 | 4.88 | 50.4 | 3.3 | > 100 | 5.66 | 55.7 | 11.4 | > 100 | 2.58 | 13.1 |  |  | 2.12 | 6.1 | 3.38 | 29.1 | 6.26 | > 100 | 0.948 | 32.5
Nc1nc(=S)c2ncn(C3OC(COP(=O)(O)O)C(O)C3O)c2[nH]1 (configuration not stated) | 2.53 | > 100 | 0.406 | > 100 | 0.447 | 12.7 | 0.717 | > 100 | 9.9 | > 100 | 0.378 | > 100 | 2.32 | > 100 | 0.471 | 5.09 | > 100 | > 100 | 0.96 | > 100
CC(=O)Oc1ccc(C2=Cc3ccc(OC(C)=O)cc3OC2C)cc1 (configuration not stated) | 4.1 | 33.8 | 0.525 | 22.5 | 6.07 | 57.2 | 5.06 | 63.7 | 4.96 | 53.8 | 2 | 4.25 | 2.51 | 9.07 | 6.56 | 67 | 14.7 | > 100 | 3.48 | 29.7
COc1ccc(-c2[nH]c3ccc(OC)cc3c2C=C(C#N)C#N)cc1 | 14.3 | > 100 | > 100 | > 100 | 3.34 | > 100 | 1.18 | > 100 | 1.45 | > 100 | 0.306 | > 100 | 1.32 | > 100 | 0.731 | > 100 | > 37 | > 100 | 0.551 | 97.7
CCCCCCCCCCCCCCNC(=O)Nc1ccc(Cl)c(Cl)c1 | 2.79 | > 23.4 | 2.5 | 11.1 | 2.77 | > 23.1 | 2.56 | 7.64 | 3.21 | > 100 | 2.6 | > 24.8 | 4.07 | > 100 | 3 | > 28.3 | 4.16 | > 100 | 1.98 | 9.57
Cc1ccc(S(=O)(=O)NCCCCC(N)C(=O)O)cc1 (configuration not stated) |  | > 100 |  | > 100 |  | > 100 |  | > 100 |  | > 100 |  | > 100 |  | > 100 |  | > 100 |  | > 100 |  | > 100
Fc1ccc(NC(c2ccc(F)cc2)C2CCN(CCCCc3ccccc3)CC2)cc1 (configuration not stated) | 1.47 | 2.84 | 3.62 | 9.12 | 1.45 | 3 | 1.58 | 3.13 | 1.78 | 3.6 | 1.49 | 2.86 | 1.71 | 3.1 | 1.86 | 3.94 | 1.99 | 4.9 | 1.11 | 2.43
CCO/C=C1\SC(=S)N(c2ccc(OCC)cc2)C1=O |  | > 100 |  | > 100 |  | > 100 |  | > 100 |  | > 100 |  | > 100 |  | > 100 |  | > 100 |  | > 100 |  | > 100
[O]=[V]([OH])([OH])[OH] | > 100 | > 100 | > 100 | > 100 | > 100 | > 100 | > 100 | > 100 | > 100 | > 100 | > 100 | > 100 | > 100 | > 100 | > 100 | > 100 | > 100 | > 100 | > 100 | > 100
S=C1SCN(Cc2ccccc2)CN1Cc1ccco1 | 3.5 | 14.4 | 2.75 | 18.5 | 5.33 | 26.8 | 3.17 | 12.3 |  |  | > 100 | > 100 | 2.24 | 6.68 | 12.9 | 52.7 | 35.5 | > 100 | 4.09 | 21.9
COc1ccc(/C=C2\CCC/C(=C\c3ccc(OC)c(OC)c3)C2=O)cc1OC | 5.59 | > 32.5 | 1.49 | > 32.5 | 4.59 | > 32.5 | 10.5 | > 32.5 | 21.9 | > 32.5 | 1.4 | 21.3 | 8.55 | > 32.5 | 12.1 | > 32.5 | 20.8 | > 32.5 | 1.29 | 12.8
CCN(CC)c1ccc2nc3ccc(=[N+](CC)CC)cc-3oc2c1 | 1.18 | 2.6 | 0.0973 | > 100 | 0.93 | 32.2 | 0.0667 | 2.96 | 0.729 | 3.8 | 0.28 |  | 0.286 | 18.1 | 0.671 | 4.75 | 0.786 | > 35.3 | 1.31 | 6.85
O=C(COc1ccc(/C=C2\Oc3ccccc3C2=O)cc1)Nc1nc2ccccc2s1 | 5.26 | 53.3 | 0.17 | 0.332 | > 69.4 | > 100 | 4.7 | 60.3 | 23.3 | > 95.5 | 28.7 | > 75.3 | 3.16 | > 100 | 61.7 | > 100 | 41.4 | > 100 | 1.99 | > 45.5
Cc1noc(NC(=O)Nc2ccccc2F)c1C#N |  | > 47.1 |  | > 100 |  | > 100 |  | > 33.5 |  | > 100 |  | > 100 |  | > 100 |  | > 100 |  | > 50.3 |  | > 100
C=CCN(CC=C)C(=O)c1cc(C)nc2c1c(=O)n(-c1ccccc1)c(=O)n2CCCN1CCN(c2ccccc2OC)CC1 | > 50 | > 50 | > 50 | > 50 | > 50 | > 50 | > 50 | > 50 | > 50 | > 50 | > 50 | > 50 | > 50 | > 50 | > 50 | > 50 | > 50 | > 50 | 31.4 | > 50
C=C(CN1CCc2[nH]c3ccc(F)cc3c2C1)c1ccc(C(=O)Nc2ccccc2N)cc1 | 0.56 | 3.59 | 2.52 | 11.9 | 0.605 | 8.38 | 2.82 | 11.3 | 2.47 | 7.32 | 3.31 | 11.8 | 0.38 | 2.32 | 2.92 | 11.8 | 3.73 | 21.7 | 2.14 | 7.4
COCCN(Cc1ccc(F)cc1)c1ccc(CO)c(Cl)c1 | 23.1 | > 82.3 | 45.2 | > 100 | 13.5 | > 100 | 24.1 | > 85.3 | 0.152 | 0.353 | 3.83 | > 100 | > 71.3 | > 100 | 38.6 | > 100 | 33.4 | > 100 | 16.6 | > 87.4
OCCCCC#Cc1ccccc1C#Cc1cccc(C(F)(F)F)c1 | 11.1 | 34 | 20.2 | 38.2 | 16.9 | 33.3 | 18.3 | 33.4 | 18.3 | 34 | 16.5 | 30.9 | 20.1 | 38 | 19.7 | 35.3 | 20.2 | 36.4 | 14.6 | 29.3
COc1cc(/C=C/c2cc(/C=C/c3ccc(O)c(OC)c3)n(C(=O)c3ccccc3Br)n2)ccc1O | 3.19 | > 100 | 0.841 | 6.14 | 3.41 | 16.3 | 3.59 | > 100 | 3.29 | 56.5 | 3.12 | 35.1 |  |  | 2.24 | 5.31 | 2.7 | > 100 | 2.79 | 15.4
COc1cc(-c2nccc3[nH]c(-c4ccc5cc[nH]c5c4)nc23)cc(OC)c1OC | < 0.01 | 2.03 | < 0.01 | 12.2 | < 0.01 | 2.67 | < 0.01 | 1.96 |  |  | < 0.01 | < 0.01 | < 0.01 | < 0.01 | < 0.01 | 5.66 | < 0.01 | 15.8 | < 0.01 | 6.6
